Calls of active or inactive are those of the source. No cut-off for these calls is given here.
Columns and labels:
[1] = Permeability of compound in PBS at pH 7.4 incubated for 18 hrs by PAMPA-BBB assay
[2] = test system: Hippocampus; experiment: Reversal of scopolamine-induced oxidative stress in male Wistar rat brain hippocampus assessed as increase in SOD level at 2.5 to 10 mg/kg, po preadministered with compound for 30 mins starting from 7 th day trail followed by scopolamine administration and measured after 5 mins […]; type: functional, organism-based; conditions: dose 2.5-10 mg/kg, time 35.0 min
[3] = target: T1, Acetylcholinesterase (Homo sapiens, UniProt P22303); experiment: Mixed type non-competitive inhibition of human erythrocyte AChE using acetylthiocholine iodide as substrate assessed as decrease in Vmax with increase in Km at 0.25 to 0.75 uM by Lineweaver-burk plot analysis; conditions: dose 0.25-0.75 µM
T1 sequence (P22303 whole entry): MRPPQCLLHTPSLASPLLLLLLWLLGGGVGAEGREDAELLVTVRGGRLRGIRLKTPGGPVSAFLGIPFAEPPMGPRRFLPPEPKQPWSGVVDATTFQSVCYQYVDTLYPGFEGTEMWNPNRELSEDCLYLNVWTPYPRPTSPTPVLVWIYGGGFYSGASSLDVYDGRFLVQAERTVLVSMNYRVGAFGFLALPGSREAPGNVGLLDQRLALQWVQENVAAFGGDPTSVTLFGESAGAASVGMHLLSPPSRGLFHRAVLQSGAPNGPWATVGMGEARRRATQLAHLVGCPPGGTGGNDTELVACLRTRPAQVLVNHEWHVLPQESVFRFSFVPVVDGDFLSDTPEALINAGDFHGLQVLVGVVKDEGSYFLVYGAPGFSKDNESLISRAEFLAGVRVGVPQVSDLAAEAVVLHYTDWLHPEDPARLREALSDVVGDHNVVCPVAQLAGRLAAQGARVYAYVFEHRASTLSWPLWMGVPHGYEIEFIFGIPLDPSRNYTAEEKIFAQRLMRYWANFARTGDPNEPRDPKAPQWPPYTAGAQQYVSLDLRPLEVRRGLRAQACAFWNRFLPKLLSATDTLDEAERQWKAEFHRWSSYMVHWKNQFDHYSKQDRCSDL

[4] = Acute toxicity in Wistar rat assessed as effect on PCT shape at 500 to 1000 mg/kg, po administered for 14 days by histopathological analysis; type: organism-based; conditions: in vivo, 336 h, dose 500-1000 mg/kg, time 14 day
[5] = test system: Rattus norvegicus; experiment: (§1) Reversal of amyloid beta (1 to 42 residues) induced cognitive impairment in Wistar rat assessed as decrease in alpha-synuclein protein level at 10 mg/kg, po pretreated with amyloid beta for 7 days followed by compound administration for 9 days and measured after 5 days by Western blot analysis; type: functional, organism-based; conditions: time 14.0 day
[6] = MRT in male Wistar rat at 10 mg/kg, po measured after 72 hrs by HPLC analysis; type: ADME, organism-based; conditions: in vivo
[7] = AUC (0 to 8 hrs) in male Wistar rat at 10 mg/kg, po measured after 72 hrs by HPLC analysis; type: ADME, organism-based; conditions: in vivo
[8] = test system: Drosophila; experiment: Neuroprotective activity against ey-GAL4>UAS-amyloid beta (1 to 42) induced cellular toxicity in Oregon R-positive Drosophila model assessed as rescue of ommatidial patterns in eye at 10 to 20 uM by scanning electron microscopic imaging analysis; type: functional, organism-based; conditions: dose 10-20 µM
[9] = test system: Rattus norvegicus; experiment: Reversal of amyloid beta (1 to 42 residues) induced cognitive impairment in Wistar rat assessed as reduction in escape latency time at 10 mg/kg, po pretreated with amyloid beta for 7 days followed by compound administration for 9 days and measured after 5 days by Morris water maze test; type: functional, organism-based; conditions: time 14.0 day
[10] = target: Amyloid-beta precursor protein (Homo sapiens) (UniProt P05067); experiment: Inhibition of amyloid beta (1 to 42) (unknown origin) aggregation assessed as appearance of thinner aggregates at 50 uM incubated for 48 hrs by TEM imaging analysis
Amyloid-beta precursor protein (Homo sapiens), sequence (P05067 whole entry, the tested form may be a part): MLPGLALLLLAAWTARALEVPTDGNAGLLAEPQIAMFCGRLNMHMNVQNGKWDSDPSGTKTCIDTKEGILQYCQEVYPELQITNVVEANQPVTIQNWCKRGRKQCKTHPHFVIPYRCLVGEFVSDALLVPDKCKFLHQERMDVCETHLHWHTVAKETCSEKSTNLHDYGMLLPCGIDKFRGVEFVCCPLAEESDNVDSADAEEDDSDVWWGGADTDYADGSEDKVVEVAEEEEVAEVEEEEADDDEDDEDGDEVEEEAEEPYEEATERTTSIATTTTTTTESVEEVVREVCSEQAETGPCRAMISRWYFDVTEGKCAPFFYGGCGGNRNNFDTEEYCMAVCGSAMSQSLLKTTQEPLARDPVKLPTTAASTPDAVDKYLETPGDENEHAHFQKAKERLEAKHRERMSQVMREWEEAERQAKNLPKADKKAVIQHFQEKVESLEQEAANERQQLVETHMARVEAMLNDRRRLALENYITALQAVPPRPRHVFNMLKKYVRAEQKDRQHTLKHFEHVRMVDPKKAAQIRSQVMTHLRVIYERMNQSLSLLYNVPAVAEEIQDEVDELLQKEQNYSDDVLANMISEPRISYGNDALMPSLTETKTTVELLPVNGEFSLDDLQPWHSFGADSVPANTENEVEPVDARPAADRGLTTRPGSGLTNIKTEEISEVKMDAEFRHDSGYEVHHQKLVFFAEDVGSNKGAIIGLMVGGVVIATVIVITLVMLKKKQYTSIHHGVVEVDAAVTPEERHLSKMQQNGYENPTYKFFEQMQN

[11] = test system: Rattus norvegicus; experiment: as §1, with “amyloid” for “alpha-synuclein protein”, “level in CA3 region of hippocampus” for “level”, “immuno histochemical” for “Western blot”; type: functional, organism-based; conditions: time 14.0 day
[12] = Acute toxicity in Wistar rat assessed as effect on vacuole appearance in liver at 500 to 1000 mg/kg, po administered for 14 days by histopathological analysis; type: organism-based; conditions: in vivo, 336 h, dose 500-1000 mg/kg, time 14 day
[13] = Acute toxicity in Wistar rat assessed as toxicity signs at 500 to 1000 mg/kg, po administered for 14 days; type: organism-based; conditions: in vivo, 336 h, dose 500-1000 mg/kg, time 14 day
[14] = target: T1, Acetylcholinesterase; experiment: Inhibition of human erythrocyte AChE using acetylthiocholine iodide as substrate preincubated for 30 mins followed by substrate addition by DTNB based Ellman's colorimetric method
[15] = Half-life in male Wistar rat at 10 mg/kg, po measured after 72 hrs by HPLC analysis; type: ADME, organism-based; conditions: in vivo
[16] = Acute toxicity in Wistar rat assessed as effect on cardiac muscle at 500 to 1000 mg/kg, po administered for 14 days by histopathological analysis; type: organism-based; conditions: in vivo, 336 h, dose 500-1000 mg/kg, time 14 day
[17] = target: Amyloid-beta precursor protein (Homo sapiens) (UniProt P05067); experiment: Inhibition of human AchE-induced amyloid beta (1 to 42) (unknown origin) aggregation at 5 to 20 uM incubated for 48 hrs by Thioflavin T fluorescence assay relative to control; conditions: dose 5-20 µM
[18] = test system: Rattus norvegicus; experiment: (§2) Reversal of amyloid beta (1 to 42 residues) induced cognitive impairment in Wistar rat assessed as reduction in focal gliosis in cerebral cortex at 2.5 to 10 mg/kg, po pretreated with amyloid beta for 7 days followed by compound administration for 9 days and measured after 5 days by Nissl's staining based analysis; type: functional, organism-based; conditions: dose 2.5-10 mg/kg, time 14.0 day
[19] = test system: Rattus norvegicus; experiment: Reversal of amyloid beta (1 to 42 residues) induced cognitive impairment in Wistar rat assessed as increase in platform crossings at 10 mg/kg, po pretreated with amyloid beta for 7 days followed by compound administration for 9 days and measured after 1 days by Morris water maze test; type: functional, organism-based; conditions: time 10.0 day
[20] = Neurotoxicity in human SH-SY5Y cells assessed as reduction in cell population at 80 uM incubated for 24 hrs by MTT assay
[21] = Acute toxicity in Wistar rat assessed as effect on DCT shape at 500 to 1000 mg/kg, po administered for 14 days by histopathological analysis; type: organism-based; conditions: in vivo, 336 h, dose 500-1000 mg/kg, time 14 day
[22] = Acute toxicity in Wistar rat assessed as effect on lung appearance at 500 to 1000 mg/kg, po administered for 14 days by histopathological analysis; type: organism-based; conditions: in vivo, 336 h, dose 500-1000 mg/kg, time 14 day
[23] = Acute toxicity in Wistar rat assessed as effect on glomerulus shape at 500 to 1000 mg/kg, po administered for 14 days by histopathological analysis; type: organism-based; conditions: in vivo, 336 h, dose 500-1000 mg/kg, time 14 day
[24] = Acute toxicity in Wistar rat assessed as toxicity symptoms at 500 to 1000 mg/kg, po administered for 14 days; type: organism-based; conditions: in vivo, 336 h, dose 500-1000 mg/kg, time 14 day
[25] = test system: Rattus norvegicus; experiment: as §1, with “amyloid” for “alpha-synuclein protein”, “level in CA1 region of hippocampus” for “level”, “immuno histochemical” for “Western blot”; type: functional, organism-based; conditions: time 14.0 day
[26] = test system: Rattus norvegicus; experiment: Antialzheimer activity against scopolamine-induced amnesia in male Wistar rat model assessed as increase in total arm enteries at 2.5 to 10 mg/kg, po preadministered with compound for 30 mins starting from 7 th day trail followed by scopolamine administration and measured after 5 mins by Y maze test; type: functional, organism-based; conditions: dose 2.5-10 mg/kg, time 35.0 min
[27] = Total AUC in male Wistar rat at 10 mg/kg, po measured after 72 hrs by HPLC analysis; type: ADME, organism-based; conditions: in vivo
[28] = target: Amyloid-beta precursor protein (Homo sapiens) (UniProt P05067); experiment: Inhibition of amyloid beta (1 to 42) (unknown origin) aggregation assessed as maximum peak height of aggregates incubated for 48 hrs by AFM analysis
[29] = test system: Rattus norvegicus; experiment: as §2, with “neural dispersion at DG region” for “focal gliosis”, “hippocampus” for “cerebral cortex”; type: functional, organism-based; conditions: dose 2.5-10 mg/kg, time 14.0 day
[30] = test system: Rattus norvegicus; experiment: Reversal of amyloid beta (1 to 42 residues) induced cognitive impairment in Wistar rat assessed as reduction in escape latency time at 10 mg/kg, po pretreated with amyloid beta for 7 days followed by compound administration for 9 days and measured after 1 days by Morris water maze test; type: functional, organism-based; conditions: time 10.0 day
[31] = target: Beta-secretase 1 (Homo sapiens, UniProt P56817); experiment: Inhibition of human BACE-1 using (7-Methoxycoumarin-4-acetyl-[Asn670, Leu671]-Amyloid beta/A4 precursor protein 770 fragments 667-676- (2, 4-dinitrophenyl) Lys-Arg-Arg amide trifluoroacetate salt as substrate incubated for 2 hrs by FRET-based analysis
Beta-secretase 1, sequence (P56817 whole entry, the tested form may be a part): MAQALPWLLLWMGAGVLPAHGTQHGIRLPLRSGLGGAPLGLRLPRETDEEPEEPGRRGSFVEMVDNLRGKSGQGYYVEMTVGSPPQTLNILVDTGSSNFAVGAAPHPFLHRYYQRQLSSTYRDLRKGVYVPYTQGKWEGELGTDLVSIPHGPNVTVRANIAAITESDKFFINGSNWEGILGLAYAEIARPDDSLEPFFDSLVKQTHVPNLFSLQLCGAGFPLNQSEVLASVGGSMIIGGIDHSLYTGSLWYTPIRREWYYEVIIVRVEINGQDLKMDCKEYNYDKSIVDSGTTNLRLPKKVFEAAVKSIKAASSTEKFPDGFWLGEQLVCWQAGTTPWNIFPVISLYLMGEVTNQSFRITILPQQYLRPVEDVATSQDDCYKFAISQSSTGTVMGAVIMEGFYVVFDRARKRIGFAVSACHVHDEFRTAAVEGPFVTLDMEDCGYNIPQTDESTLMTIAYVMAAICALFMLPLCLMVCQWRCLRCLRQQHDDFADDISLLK

[32] = test system: SH-SY5Y; experiment: Neuroprotective activity against amyloid-beta(1 to 42) induced oxidative stress in differentiated human SH-SY5Y cells assessed as increase in cell viability at 40 uM preincubated with amyloid-beta (1 to 42 ) for 24 hrs followed by compound addition and measured after 48 hrs by MTT assay relative to control; type: functional
[33] = Toxicity in wildtype Oregon R-positive Drosophila assessed as eclosion at 50 uM pretreated for 5 days and measured for 15 days relative to control; conditions: 480 h, time 20 day

In the case of `COc1cc(NC(=O)Cn2nc(-c3ccccc3)c(-c3ccccc3)nc2=O)cc(OC)c1`, the Papp at 18 h [1] is reported as 5.64 ×10⁻⁶ cm/s, the Activity [2] is reported as “Active” and the inhibition [3] is reported as “Active”. For the same molecule, the Activity [4] was “Non-Toxic”, the Activity [5] was “Active” and the MRT [6] was 32 h. The AUC(0-t) at 72 h [7] was 1140 ng·h/mL, the Activity [8] was “Active” and the Activity [9] was “Active”. For the same molecule, the inhibition [10] was “Active”, the Activity [11] was “Active” and the Activity [12] was “Non-Toxic”. For the same molecule, the Activity [13] was “Non-Toxic”, the IC50 [14] was 486 nM and the half-life [15] was 41 h. For the same molecule, the Activity [16] was “Non-Toxic”, the inhibition [17] was 41.3% and the Activity [18] was “Active”. The Activity [19] was “inactive”, the Activity [20] was “Non-Toxic” and the Activity [21] was “Non-Toxic”. For the same molecule, the Activity [22] was “Non-Toxic”, the Activity [23] was “Non-Toxic” and the Activity [24] was “Non-Toxic”. The Activity [25] was “Active”, the Activity [26] was “Active” and the AUC at 72 h [27] was 1740 ng·h/mL. The Activity [28] was 253 nm, the Activity [29] was “Active” and the Activity [30] was “inactive”. The IC50 [31] was 542 nM, the Activity [32] was 72% and the Activity [33] was 25%.

From ChEMBL document CHEMBL5500364, “Design, synthesis, and biological evaluation of some 2-(3-oxo-5,6-diphenyl-1,2,4-triazin-2(3H)-yl)-N-phenylacetamide hybrids as MTDLs for Alzheimer's disease therapy” (Eur J Med Chem, 2024)
